For series [1], the system named is APPKIGFP and WTGFP mice. Nature of the series: Contextual fear conditioning test. It counts as in vivo, mouse. Particulars: i.p. 10 mg/kg.
For series [2], the system named is hippocampal LTP. Put plainly: Hippocampal slice field recordings (LTP). In kind it is cell-based, mouse. To be noted: pre-treatment 300 nM for 2-3 hours. Here is the method:
FIGS. 6A-E. NSN21778 rescues mushroom spine and synaptic plasticity defects in AD hippocampal slices. (FIG. 6A) Confocal images of CA1 hippocampal slices from 6 month-old WTGFP, PS1KIGFP, and APPKIGFP mice. The images are shown for untreated slices (CON) and for slices treated with 300 nM NSN21778 (+NSN) for 3.5 hrs prior to fixation. Scale bar is 10 μm. (FIG. 6B) The fraction of mushroom spines in hippocampal CA1 neurons from 6 month-old WTGFP, PS1KIGFP, and APPKIGFP mice. The results are shown for untreated slices (CON) and for slices treated with 300 nM NSN21778 (+NSN). The average fraction of mushroom spines for each group of cells is shown as mean±SE (n≥31 neurons). ***, p <0.001. (FIG. 6C) Sample fEPSP traces are shown for 6 month-old WT and APPKI hippocampal slices prior to stimulation (basal), immediately after tetanus stimulation (induction) and 1 h after tetanus stimulation (after 1 hr). The results are shown for untreated slices and for slices pre-treated with 300 nM NSN21778 (+NSN) for 2-3 hours prior to tetanus stimulation. […]
Hippocampal slice field recordings. […] Field potentials (FPs) were recorded with extracellular recording electrodes (1 MΩ) filled with ACSF and placed in stratum radiatum of area CA1. […] The initial slope of the FPs was used to measure stability of synaptic responses and quantify the magnitude of LTP. […]

Series [3] deals with mushroom spines in hippocampal CA1 neurons. Put plainly: Dendritic spine analysis in mice hippocampus after i.p. treatment. In kind it is in vivo, mouse. To be noted: i.p. 10 mg/kg for 10 weeks.
Series [4] has as its target T1, TRPC6 (Homo sapiens, UniProt Q9Y210).
T1 construct: expressed in transfected cells; host or cells: HEK293
T1 sequence (Q9Y210 1-931): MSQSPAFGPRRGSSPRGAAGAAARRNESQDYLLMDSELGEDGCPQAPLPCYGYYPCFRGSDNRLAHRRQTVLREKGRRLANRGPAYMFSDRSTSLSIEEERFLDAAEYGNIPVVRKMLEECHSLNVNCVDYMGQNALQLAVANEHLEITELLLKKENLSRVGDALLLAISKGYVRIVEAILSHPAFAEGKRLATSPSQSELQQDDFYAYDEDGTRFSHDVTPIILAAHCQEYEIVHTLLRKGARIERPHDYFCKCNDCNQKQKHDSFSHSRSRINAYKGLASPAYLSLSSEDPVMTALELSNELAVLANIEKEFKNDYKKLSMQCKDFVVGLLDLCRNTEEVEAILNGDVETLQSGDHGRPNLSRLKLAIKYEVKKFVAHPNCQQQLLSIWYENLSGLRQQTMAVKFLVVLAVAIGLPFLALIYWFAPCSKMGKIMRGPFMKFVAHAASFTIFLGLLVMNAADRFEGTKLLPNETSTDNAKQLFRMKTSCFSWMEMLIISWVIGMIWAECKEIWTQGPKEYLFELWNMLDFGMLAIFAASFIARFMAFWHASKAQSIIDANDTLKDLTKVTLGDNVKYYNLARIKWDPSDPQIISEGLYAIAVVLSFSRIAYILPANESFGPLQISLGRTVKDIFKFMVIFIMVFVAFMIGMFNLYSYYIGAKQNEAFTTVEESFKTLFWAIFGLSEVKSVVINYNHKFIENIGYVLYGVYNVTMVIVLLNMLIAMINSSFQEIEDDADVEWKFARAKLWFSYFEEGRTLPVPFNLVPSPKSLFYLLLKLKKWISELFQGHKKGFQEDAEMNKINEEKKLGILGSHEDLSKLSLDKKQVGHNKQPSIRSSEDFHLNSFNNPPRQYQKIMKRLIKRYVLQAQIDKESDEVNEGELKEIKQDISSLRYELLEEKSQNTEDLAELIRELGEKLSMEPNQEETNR
Nature of the series: Fura-2 Ca2+ imaging in TRPC6-transfected HEK293 cells. In kind it is cell-based. Particulars: for potentiation of OAG-induced responses: preincubation 1 μM, 100 μM OAG.

The values that follow come from patent publication US20180147206A1, “ACTIVATION OF NEURONAL STORE-OPERATED CALCIUM ENTRY PATHWAY FOR THE TREATMENT OF ALZHEIMER'S DISEASE” (The Board of Regents of the University of Texas System, priority 2015, published 2018).

`CC(=O)Nc1ccc(CCNc2ncnc3ccc(N)cc23)cc1` [NSN21778, N-{4-[2-(6-Amino-quinazolin-4-ylamino)-ethyl]-phenyl}-acetamide]: the “contextual fear conditioning phenotype” value in series [1] (6.5 month-old APPKIGFP mice) is “fully rescued”. Moreover, the “contextual fear conditioning responses” value in series [1] (WTGFP mice, difference to control not statistically significant) is “somewhat impaired responses”. Moreover, where the note is “i.p. 10 mg/kg 3 times per week, WTGFP, PS1KIGFP and APPKIGFP mice”, the “toxicity in injected mice” value is “not observed any obvious toxicity”. In addition, for the setting “i.p. 10 mg/kg, following 10 weeks treatment”, the body weight entry is recorded as “some weight loss”. Besides, the LTP defect entry in series [2] (APPKI slices, 6 month-old) was “completely rescued”. The LTP result in series [2] (wild-type slices) is given as “no significant effect”. Besides, the “mushroom spine deficiency in vivo” value in series [3] (PS1KIGFP and APPKIGFP mice) is “rescue of mushroom spine deficiency”. The “mushroom spines in vivo” value in series [3] (WTGFP mice) is “no effect”. Moreover, the “SOC in conditions of store depletion” value in series [4] (GFP or TRPC6 HEK293 cells preincubated in Ca2+-free media with 1 μM Tg (data not shown)) is given as “no additional effect”. In addition, the “Ca2+ influx” value in series [4] (TRPC6-transfected HEK293 cells, 1 μM, 2 mM Ca2+) is recorded as “did not trigger Ca^2+ influx”. The “potentiation of OAG-induced responses” value in series [4] (TRPC6-transfected cells, stores partially depleted (0.1 mM Ca2+)) is reported as “significant potentiation”; in series [4] (control GFP cells, stores partially depleted), “not in control GFP cells”.
